# Measured values from patent US10195144B2, “Methods of treating inflammatory and autoimmune diseases and disorders” (Yale University, priority 2012, dated 2019).
# How the values were obtained:
# CD4 T cells = test: CD4 T cell proliferation after particle incubation, wash and anti-CD3/anti-CD28 stimulation; format: cell-based; conditions: brief incubation, wash, 4 days stimulation
# Protocol: CD4 T cells were briefly incubated with particles, washed to remove any unbound particles, and then stimulated for 4 days with anti-CD3 and anti-CD28 antibodies to promote proliferation.
# [1] = system: NZB/W F1 lupus-prone mice; test: in vivo comparison of nanolipogels and PLGA particles, survival; conditions: 0.625 mg MPA per kg
# From the text: The efficacy of nanolipogels was compared to PLGA using both in vivo and in vitro evaluation. […] Survival time was monitored to determine and compare in vivo efficacy between particles.
# female NZB/W F1 mice = test: survival of lupus-prone mice under life-long weekly therapy; format: in vivo
# Protocol: NZB/W F1 mice develop autoimmunity that resembles human lupus nephritis, with development of glomerulonephritis, anemia, and the generation of autoantibodies specific for double-stranded DNA and other self-antigens. NZB/W F1 mice were administered a life-long, single weekly intraperitoneal injection of nanoparticle therapy beginning at 18 weeks of age, before the onset of proteinuria. The single, weekly MPA dosage in nanoparticles was 0.625 mg of MP A per kg animal (mpk). Control mice received only saline buffer.
# Animal studies using female NZB/W F1 mice (The Jackson Laboratory, stock #100008) were performed with the approval of the Yale University Institutional Animal Care and Use Committee. Beginning at 18 weeks of age, NZB/W F1 mice were administered a weekly intraperitoneal injection of nanoparticles or mycophenolic acid in buffer for the entirety of their life. An intraperitoneal injection was used, as opposed to intravenous tail vein injection, to prevent long-term tail vein damage from chronic injections. Mice urine was collected by bladder compression, and blood was collected via retroorbital bleed with isoflurane anesthesia. Mouse survival was continued until symptoms of cachexia (more than 5-10% body weight loss), lethargy, or poor condition warranted humane euthanization.
smiles,measurement,setting,value
"COc1c(C)c2c(c(O)c1C/C=C(\C)CCC(=O)O)C(=O)OC2 [MPA, mycophenolic acid]",CD4 T cell proliferation and cytokine production,CD4 T cells,normal proliferation and cytokine production
same,increase of survival time of treated mice,[1],not
same,effect on survival,female NZB/W F1 mice; 0.625 mpk soluble in buffer,no effect on extending survival
same,effect on survival,"female NZB/W F1 mice; 10 mpk (16-fold) in buffer, listed as MPA administered in buffer",could not achieve the same therapeutic effect
same,effect on survival,"female NZB/W F1 mice; 10 mpk (16-fold) in buffer, listed as free MPA",no improvement in survival
